Results taken from patent US8916559B2, “Crystalline compound of 7-[(3R)-3-amino-1-oxo-4-(2, 4, 5-trifluorophenyl)butyl]-5, 6, 7, 8-tetrahydro-3-(tri fluoromethyl)-1, 2, 4 -triazolo[4,3-A]pyrazin” (Sandoz AG, priority 2009, dated 2014).
Where a name gives a salt, the structure may show the parent alone. Values belong to the compound of their own block, whether it stands above or below them.

What was measured:
[1] = Dynamic water vapor sorption measurements (hygroscopicity); assay type: physicochemical; conditions: for H2O content at 50% r.h. / H2O content at 90% r.h.: dynamic water vapor sorption; for H2O content at 90% r.h.: 90% relative humidity; for hygroscopic behaviour (water adsorption, in words): identical measurement conditions, high relative humidities
Excerpt: Amorphous or mesomorphous forms of a compound can have a very much stronger tendency toward hygroscopicity than crystalline forms. The sitagliptin fumarate compounds described here are characterized in that they have good hygroscopic properties, i.e. absorb little water at high relative humidity. This is evident from table 1 below, which compares the water contents of the crystalline fumarate form A and crystalline hydrochloride at 50% and 90% relative humidity. The data originate from dynamic water vapor adsorption measurements. The water vapor sorption measurement is a suitable method for investigating the hygroscopic properties of solid substances. Water vapor sorption measurements can be carried out in different ways. In general, in this connection, a small sample of ca. 10-30 mg is introduced into a microbalance in a suitable sample carrier. The sample is then exposed to different relative humidities in accordance with a defined program, the change in the sample mass being simultaneously recorded over the time. As a result, insights into the hygroscopic behavior of a substance can be obtained.
Dynamic water vapor adsorption measurements were carried out using an SPS11-100n instrument, manufactured by “Projekt Messtechnik” in Ulm, Germany. For this, ca. 20 mg of the sample were weighed into an aluminum support and this was inserted into the measurement chamber of the instrument. The sample was then subjected to preselected relative humidities in accordance with a defined program, the change in mass being determined over the time. The following measurement program was used: 50% r.h. constant for two hours, then changing the relative humidity to 0% r.h., then changing the relative humidity to 96% r.h., constant at 96% r.h. for four hours and then changing the relative humidity to 50% r.h. and then constant at 50% r.h. for one hour. The change rates set were in each case 5% per hour.

[2] = at temperatures above 40° C.; hydrate of WO 2005/003135; cited from earlier work
[3] = hydrochloride of WO 03/004498 A1; cited from earlier work

- water content at 50% relative humidity ([1]; 50% relative humidity): ca. 0.3%
- H2O content at 50% r.h. ([1]; 50% relative humidity, listed as Crystalline sitagliptin fumarate form A): 0.25%
- H2O content at 90% r.h. ([1]; listed as Crystalline sitagliptin fumarate form A): 1.33%
- additional water absorbed compared with 50% relative humidity ([1]; after four hours at 96% relative humidity): ca. 1%
- hygroscopic behaviour (water adsorption, in words) [1]: absorbs only a small amount of water
Structure (SMILES): N[C@@H](CC(=O)N1CCn2c(nnc2C(F)(F)F)C1)Cc1cc(F)c(F)cc1F [form A, 7-[(3R)-3-amino-1-oxo-4-(2,4,5-trifluorophenyl)butyl]-5,6,7,8-tetrahydro-3-(trifluoromethyl)-1,2,4-triazolo[4,3-a]pyrazine]

Structure (SMILES): N[C@@H](CC(=O)N1CCn2c(nnc2C(F)(F)F)C1)Cc1cc(F)c(F)cc1F.O=P(O)(O)O [sitagliptin dihydrogenphosphate salt]
- phase stability (in words) [2]: phase-unstable

- H2O content at 50% r.h. ([1]; 50% relative humidity, hydrochloride): >2.7%^
- H2O content at 90% r.h. ([1]; hydrochloride): >3.6%^
- hygroscopic behaviour (water adsorption, in words) ([1]; listed as crystalline sitagliptin hydrochloride monohydrate, hydrochloride): adsorbs significantly more water
Structure (SMILES): N[C@@H](CC(=O)N1CCn2c(nnc2C(F)(F)F)C1)Cc1cc(F)c(F)cc1F [sitagliptin hydrochloride]
- hygroscopicity (in words) [3]: hygroscopic
